# Reference: article PMC5274652, “Antagonizing Retinoic Acid Receptors Increases Myeloid Cell Production by Cultured Human Hematopoietic Stem Cells” (Archivum Immunologiae et Therapiae Experimentalis, 2016)
# Columns and labels:
# human RARγ = target: T1, human RARγ (Homo sapiens, UniProt P13631); assay: Competition with [3H]-ATRA binding, nuclear extracts of Sf21 cells expressing RARγ; conditions: nuclear extracts of baculovirus-infected Sf21 cells, read-out: Binding affinity ED50, RARγ
# T1 construct: made in house
# T1 sequence (P13631 1-454): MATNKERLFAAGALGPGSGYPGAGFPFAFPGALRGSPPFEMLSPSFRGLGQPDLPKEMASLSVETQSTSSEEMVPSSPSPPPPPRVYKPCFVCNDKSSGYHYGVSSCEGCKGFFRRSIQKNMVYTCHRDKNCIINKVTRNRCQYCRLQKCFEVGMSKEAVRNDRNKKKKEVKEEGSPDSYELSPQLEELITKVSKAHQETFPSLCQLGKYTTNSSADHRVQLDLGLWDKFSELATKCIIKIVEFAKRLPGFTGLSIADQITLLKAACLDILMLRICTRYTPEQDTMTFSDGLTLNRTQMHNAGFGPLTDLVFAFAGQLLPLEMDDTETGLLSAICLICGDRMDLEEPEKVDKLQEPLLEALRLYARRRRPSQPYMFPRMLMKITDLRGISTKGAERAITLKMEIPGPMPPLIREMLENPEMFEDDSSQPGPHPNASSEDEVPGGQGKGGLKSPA
# CD34^+vehuHSC = assay: Cell production and lifespan of CD34+ve huHSC-initiated cultures; type: cell-based, human
# Text: (§1) The cells used were CD34^+ve cells purified from the blood of normal human adult donors and post-mobilization of stem cells to the blood. Cells obtained and purified in this manner are used routinely by the National Blood Service Stem Cell Laboratory in Birmingham for bone marrow transplantation. Ethics approval for the use of adult human blood-mobilized stem cells (CD34^+vehuHSC) was from the West Midlands Research Ethics Committee. Informed consent was obtained by the regional National Blood Service Stem Cell Laboratory in Birmingham. CD34^+ve cells were purified to 99 % CD34^+ve, 97 % CD133^+ve, >99 % lineage^−ve (n = 15) using an anti-CD34 monoclonal antibody, immunomagnetic beads, and a CliniMACS magnetic separator. Purified cells were plated at 5 × 10^5 cells/ml in microtiter wells in 200 μl of either RPMI-1640 medium (R and D Systems, Abingdon, UK) or HPGM^TM hematopoietic growth medium (Lonza, UK) containing either 10 % FBS or 10 % human serum, antibiotics (100 U/ml penicillin and 100 μg/ml streptomycin) and stem cell factor (SCF), interleukin (IL)-3, and granulocyte-colony stimulating factor (G-CSF) (all from R and D Systems Abingdon, UK) as stated in the results. Cultures were fed every 2–3 days (with fresh compound), split into microtiter wells, and then expanded into 2 ml Costar wells to maintain a cell density of between 2.5 and 10 × 10^5 cells/ml. Cells were grown at 37 °C in 5 % CO2. Viable cells were enumerated by phase contrast microscopy (400× magnification).
# The expression of differentiation markers at the cell surface was determined by flow cytometry. Differentiation of NB-4 and KG1 cells was measured by staining using the monoclonal antibodies CD11b-FITC and CD14-PE and appropriately labeled isotype controls (all from ImmunoTools, Friesoythe, Germany). Differentiation of human CD34^+ve cells was measured by triple-color staining using various cocktails of phycoerythrin-, fluorescein isothyocyanate-, and PerCP-monoclonal antibodies (from Becton–Dickinson, San Jose, CA, USA). The markers used to identify cell populations were as follows: CD45^+ve leukocytes; CD34^+ve/CD133^+ve HSCs; CD33^+ve/CD13^+ve immature myeloid; CD117^+ve myeloblasts and promyelocytes; CD11b^+ve/CD15^+ve mature myeloid; CD11b^+ve/CD65^+ve neutrophils; CD11b^+ve/CD14^+ve monocytes; glycophorin^+ve A erythroid cells; CD61^+ve megakaryoblasts and platelets; CD2^+ve/CD5^+ve/CD7^+ve T cells and NK cells; CD56^+ve NK cells; CD19^+ve/CD20^+ve B cells; and CD10^+ve B lymphocyte progenitors; and present on mature neutrophils and DR^+ve progenitors and present on mature monocytes. The cells were stained with 1 µl of the fluorescently labeled antibody (or the appropriate control immunoglobulin) for 1 h on ice. Next, they were washed with ice-cold phosphate-buffered saline (PBS) and suspended in 0.5 ml PBS supplemented with 0.1 % bovine serum albumin (Sigma, St Louis, MO, USA) prior to analysis on FACS Calibur flow cytometer (Becton–Dickinson, San Jose, CA, USA). The acquisition parameters were set for an isotype control. Cells were analyzed using a FACSCalibur, and data analysis was performed using the CellQuest Pro software (Becton–Dickinson, San Jose, CA, USA).
# [1] = test system: lineage^−ve/CD133^+ve/CD34^+vehuHSC; assay: Ex vivo expansion of lineage-ve/CD133+ve/CD34+ve huHSC; type: cell-based, human
# Text: as §1, with “Viable cells were enumerated by phase contrast microscopy (400× magnification).” left out
# The expression of differentiation markers at the cell surface was determined by flow cytometry. Differentiation of NB-4 and KG1 cells was measured by staining using the monoclonal antibodies CD11b-FITC and CD14-PE and appropriately labeled isotype controls (all from ImmunoTools, Friesoythe, Germany). Differentiation of human CD34^+ve cells was measured by triple-color staining using various cocktails of phycoerythrin-, fluorescein isothyocyanate-, and PerCP-monoclonal antibodies (from Becton–Dickinson, San Jose, CA, USA). […] Cells were analyzed using a FACSCalibur, and data analysis was performed using the CellQuest Pro software (Becton–Dickinson, San Jose, CA, USA).
structure (smiles),measurement,setting,value
CCc1ccc(C2=CC(C)(C)Sc3ccc(C#Cc4ccc(C(=O)O)cc4)cc32)cc1 [AGN194310],IC50,human RARγ,2 nM
same,cells produced versus control cultures,"CD34^+vehuHSC; 10 nM, by day 20, 10 % FBS, SCF, IL-3",around fourfold more cells
same,time for which cultures were maintained,"CD34^+vehuHSC; 10 nM, 10 % FBS, SCF, IL-3, control cultures expire by day 30",≤ 55 days
same,kinetic of cell production compared with 10 nM,"CD34^+vehuHSC; 100 nM, data not shown",almost identical kinetic
same,effect on rate of myeloid cell differentiation,CD34^+vehuHSC; CD34+ve huHSC cultures,did not slow down myeloid cell differentiation
same,prolonged lifespan of cultures,"CD34^+vehuHSC; human HSCs supplemented with stem cell factor ± interleukin 3, abstract",up to 55 days
same,level of expansion of lineage−ve/CD133+ve/CD34+ve huHSC,"[1]; 100 nM, day 30, HPGM, 10 % human serum, 100 ng/ml SCF, mean of seven donors, control ~eightfold",~ 18 fold
same,expansion of lineage−ve/CD133+ve/CD34+ve cells,"[1]; all 15 donors, control 8–10-fold",around 20 fold
